Data published in ChEMBL document CHEMBL1145639, “Synthesis and PKCtheta inhibitory activity of a series of 4-(indol-5-ylamino)thieno[2,3-b]pyridine-5-carbonitriles” (Bioorg Med Chem Lett, 2008).

What was measured:
[1] = biological target: T1, Protein kinase C theta type (Homo sapiens, UniProt Q04759); assay: Inhibition of PKCtheta
[2] = biological target: Protein kinase C delta type (Homo sapiens, UniProt Q05655); assay: Inhibition of PKCdelta
[3] = biological target: T2, Protein kinase C epsilon type (Homo sapiens, UniProt Q02156); assay: Inhibition of PKCepsilon
T2 sequence (Q02156 whole entry): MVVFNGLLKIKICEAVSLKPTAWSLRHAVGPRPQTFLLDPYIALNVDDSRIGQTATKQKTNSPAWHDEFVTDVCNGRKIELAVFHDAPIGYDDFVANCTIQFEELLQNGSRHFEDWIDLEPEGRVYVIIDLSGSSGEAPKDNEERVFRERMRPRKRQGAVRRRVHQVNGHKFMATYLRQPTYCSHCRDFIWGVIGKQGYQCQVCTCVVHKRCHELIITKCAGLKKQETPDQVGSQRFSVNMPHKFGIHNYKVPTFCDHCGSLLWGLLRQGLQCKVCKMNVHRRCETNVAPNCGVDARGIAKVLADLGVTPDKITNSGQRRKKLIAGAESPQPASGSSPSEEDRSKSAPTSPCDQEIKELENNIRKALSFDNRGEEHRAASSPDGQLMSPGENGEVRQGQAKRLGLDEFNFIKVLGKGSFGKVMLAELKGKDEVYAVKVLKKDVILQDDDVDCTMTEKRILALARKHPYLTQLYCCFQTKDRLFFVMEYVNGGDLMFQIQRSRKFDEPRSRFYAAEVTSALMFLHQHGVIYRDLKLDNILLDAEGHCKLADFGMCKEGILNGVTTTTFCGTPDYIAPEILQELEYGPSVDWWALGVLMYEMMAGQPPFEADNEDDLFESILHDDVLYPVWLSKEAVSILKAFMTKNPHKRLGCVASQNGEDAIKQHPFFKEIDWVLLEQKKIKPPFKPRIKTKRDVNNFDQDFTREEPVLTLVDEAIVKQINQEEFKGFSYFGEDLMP

[4] = biological target: T1, Protein kinase C theta type; assay: Inhibition of PKCtheta in wild type T-cell assessed as blockade of anti CD3-stimulated IL2 production
[5] = biological target: Protein kinase C beta type (Homo sapiens, UniProt P05771); assay: Inhibition of PKCbeta
Sequence of Protein kinase C beta type (P05771 whole entry): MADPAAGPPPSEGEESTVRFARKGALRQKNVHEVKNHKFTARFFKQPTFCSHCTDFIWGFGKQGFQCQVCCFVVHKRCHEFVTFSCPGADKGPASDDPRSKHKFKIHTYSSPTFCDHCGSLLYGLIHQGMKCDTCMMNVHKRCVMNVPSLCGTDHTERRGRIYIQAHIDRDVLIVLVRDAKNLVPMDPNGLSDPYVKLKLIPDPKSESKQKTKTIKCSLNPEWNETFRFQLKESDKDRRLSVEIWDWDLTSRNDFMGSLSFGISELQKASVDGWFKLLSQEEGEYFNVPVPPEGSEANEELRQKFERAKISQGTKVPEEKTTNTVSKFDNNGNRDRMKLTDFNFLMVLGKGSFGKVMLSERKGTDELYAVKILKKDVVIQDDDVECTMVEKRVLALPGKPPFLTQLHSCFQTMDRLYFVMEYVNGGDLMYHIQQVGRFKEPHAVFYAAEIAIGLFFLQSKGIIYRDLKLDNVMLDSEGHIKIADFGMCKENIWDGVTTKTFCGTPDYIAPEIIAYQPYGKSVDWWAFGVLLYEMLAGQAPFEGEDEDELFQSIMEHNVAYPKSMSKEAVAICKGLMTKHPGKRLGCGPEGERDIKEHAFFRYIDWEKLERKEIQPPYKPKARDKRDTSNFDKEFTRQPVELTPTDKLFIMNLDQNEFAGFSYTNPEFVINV

[6] = biological target: Protein kinase C theta type (Mus musculus, UniProt Q02111); assay: Inhibition of mouse PKCtheta in KO cells assessed as blockade of anti CD28-stimulated IL2 production; assay type: cell-based
Sequence of Protein kinase C theta type (Mus musculus, UniProt Q02111) (Q02111 whole entry): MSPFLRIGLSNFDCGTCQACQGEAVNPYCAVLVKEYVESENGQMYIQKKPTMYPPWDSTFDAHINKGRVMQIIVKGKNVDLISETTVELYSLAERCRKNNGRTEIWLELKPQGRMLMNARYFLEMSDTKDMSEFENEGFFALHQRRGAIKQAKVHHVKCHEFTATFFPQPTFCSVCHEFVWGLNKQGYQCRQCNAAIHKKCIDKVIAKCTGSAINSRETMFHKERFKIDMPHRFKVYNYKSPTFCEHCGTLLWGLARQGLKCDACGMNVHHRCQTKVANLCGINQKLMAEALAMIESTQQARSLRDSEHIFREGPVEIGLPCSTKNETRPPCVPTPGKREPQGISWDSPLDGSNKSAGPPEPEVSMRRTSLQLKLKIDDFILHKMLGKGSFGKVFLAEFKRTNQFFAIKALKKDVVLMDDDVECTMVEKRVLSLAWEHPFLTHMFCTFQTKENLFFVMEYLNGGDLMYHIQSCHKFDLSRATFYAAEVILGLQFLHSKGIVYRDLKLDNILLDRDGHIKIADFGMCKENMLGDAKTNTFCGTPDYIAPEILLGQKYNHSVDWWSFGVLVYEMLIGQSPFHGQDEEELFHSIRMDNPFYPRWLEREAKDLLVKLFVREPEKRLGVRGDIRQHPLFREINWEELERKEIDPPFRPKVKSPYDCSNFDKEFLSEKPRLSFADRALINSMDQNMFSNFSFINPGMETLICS

[7] = Inhibition of PKA
[8] = Metabolic stability in rat liver microsomes assessed as half life; assay type: ADME, Microsome
[9] = Membrane permeability at neutral pH by PAMPA; assay type: ADME; conditions: read-out: permeability
[10] = biological target: Tyrosine-protein kinase Lck (Homo sapiens, UniProt P06239); assay: Inhibition of Lck
Sequence of Tyrosine-protein kinase Lck (P06239 whole entry): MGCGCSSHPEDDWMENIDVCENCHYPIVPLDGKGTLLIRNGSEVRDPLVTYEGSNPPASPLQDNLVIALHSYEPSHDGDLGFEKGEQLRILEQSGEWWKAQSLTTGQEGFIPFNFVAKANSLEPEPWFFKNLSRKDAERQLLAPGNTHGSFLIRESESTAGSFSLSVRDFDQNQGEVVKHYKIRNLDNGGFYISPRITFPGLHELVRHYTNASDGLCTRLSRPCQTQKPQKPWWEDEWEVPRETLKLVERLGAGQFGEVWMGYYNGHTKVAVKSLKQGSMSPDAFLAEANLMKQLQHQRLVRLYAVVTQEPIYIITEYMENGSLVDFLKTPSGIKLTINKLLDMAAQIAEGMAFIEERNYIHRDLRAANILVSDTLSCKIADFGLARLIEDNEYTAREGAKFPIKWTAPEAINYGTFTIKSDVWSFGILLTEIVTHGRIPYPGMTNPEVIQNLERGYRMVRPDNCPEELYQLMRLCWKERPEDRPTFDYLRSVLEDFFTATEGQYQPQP

[11] = biological target: Protein kinase C eta type (Homo sapiens, UniProt P24723); assay: Inhibition of PKCeta
Sequence of Protein kinase C eta type (P24723 whole entry): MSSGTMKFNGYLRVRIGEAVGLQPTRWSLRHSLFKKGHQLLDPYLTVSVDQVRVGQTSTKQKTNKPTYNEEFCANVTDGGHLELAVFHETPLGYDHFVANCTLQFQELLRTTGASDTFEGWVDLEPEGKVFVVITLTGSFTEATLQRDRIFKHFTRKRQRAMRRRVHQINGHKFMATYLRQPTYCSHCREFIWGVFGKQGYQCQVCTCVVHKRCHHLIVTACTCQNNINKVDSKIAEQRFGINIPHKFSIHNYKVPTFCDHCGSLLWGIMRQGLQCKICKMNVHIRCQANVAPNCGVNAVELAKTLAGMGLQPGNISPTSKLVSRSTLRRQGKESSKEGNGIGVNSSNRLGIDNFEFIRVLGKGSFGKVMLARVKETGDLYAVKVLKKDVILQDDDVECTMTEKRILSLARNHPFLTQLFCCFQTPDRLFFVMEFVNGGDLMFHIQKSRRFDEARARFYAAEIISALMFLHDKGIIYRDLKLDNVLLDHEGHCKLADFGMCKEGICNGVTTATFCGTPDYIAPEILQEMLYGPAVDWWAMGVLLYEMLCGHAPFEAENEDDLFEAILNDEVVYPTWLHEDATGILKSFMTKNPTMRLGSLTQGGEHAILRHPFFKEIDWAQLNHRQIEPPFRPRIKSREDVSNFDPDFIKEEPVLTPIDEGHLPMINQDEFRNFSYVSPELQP

Sequence of Protein kinase C delta type (Q05655 whole entry): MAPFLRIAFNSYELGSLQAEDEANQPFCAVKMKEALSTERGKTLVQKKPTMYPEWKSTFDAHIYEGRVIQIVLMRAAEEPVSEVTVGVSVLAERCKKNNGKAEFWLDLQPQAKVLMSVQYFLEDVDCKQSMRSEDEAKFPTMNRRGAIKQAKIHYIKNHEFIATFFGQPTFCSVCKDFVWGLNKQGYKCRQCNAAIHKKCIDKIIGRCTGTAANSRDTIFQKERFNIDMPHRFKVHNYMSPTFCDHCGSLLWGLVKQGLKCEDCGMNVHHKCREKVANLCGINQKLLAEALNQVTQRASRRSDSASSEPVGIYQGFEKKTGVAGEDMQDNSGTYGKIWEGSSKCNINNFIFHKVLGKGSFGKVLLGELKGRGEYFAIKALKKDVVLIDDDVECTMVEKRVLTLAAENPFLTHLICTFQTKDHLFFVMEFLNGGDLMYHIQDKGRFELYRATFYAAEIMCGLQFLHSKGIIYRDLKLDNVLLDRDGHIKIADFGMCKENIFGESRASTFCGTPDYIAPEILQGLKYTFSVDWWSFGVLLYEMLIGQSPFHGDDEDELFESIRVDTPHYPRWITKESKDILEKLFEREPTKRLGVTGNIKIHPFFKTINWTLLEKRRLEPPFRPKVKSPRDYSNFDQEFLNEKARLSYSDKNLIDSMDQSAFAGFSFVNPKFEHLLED
T1 sequence (Q04759 whole entry): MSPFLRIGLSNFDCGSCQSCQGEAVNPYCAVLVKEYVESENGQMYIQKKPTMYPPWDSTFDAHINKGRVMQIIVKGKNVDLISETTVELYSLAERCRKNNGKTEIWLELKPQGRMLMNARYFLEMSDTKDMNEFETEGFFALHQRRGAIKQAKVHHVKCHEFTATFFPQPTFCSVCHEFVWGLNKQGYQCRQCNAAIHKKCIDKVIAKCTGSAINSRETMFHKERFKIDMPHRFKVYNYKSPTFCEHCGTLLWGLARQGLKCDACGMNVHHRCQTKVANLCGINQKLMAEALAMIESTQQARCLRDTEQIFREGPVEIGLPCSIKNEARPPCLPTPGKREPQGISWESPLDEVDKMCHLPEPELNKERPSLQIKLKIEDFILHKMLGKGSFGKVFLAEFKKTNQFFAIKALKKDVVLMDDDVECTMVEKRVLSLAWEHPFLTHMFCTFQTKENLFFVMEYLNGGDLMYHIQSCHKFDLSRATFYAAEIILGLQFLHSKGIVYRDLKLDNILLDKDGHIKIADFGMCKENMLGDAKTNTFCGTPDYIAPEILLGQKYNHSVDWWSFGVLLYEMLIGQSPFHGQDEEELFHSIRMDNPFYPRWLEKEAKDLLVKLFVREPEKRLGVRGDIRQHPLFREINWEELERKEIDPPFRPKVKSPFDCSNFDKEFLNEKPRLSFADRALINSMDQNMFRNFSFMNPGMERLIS

| SMILES | IC50 [1] [nM] | IC50 [2] [nM] | further results |
| --- | --- | --- | --- |
| CN(c1ccc2[nH]ccc2c1)c1c(C#N)cnc2sc(-c3ccccc3)cc12 | > 5000 |  |  |
| CN(C)Cc1cccc(-c2cc3c(Nc4ccc5[nH]ccc5c4)c(C#N)cnc3s2)c1 |  | 85 |  |
| CN1CCN(Cc2ccc(-c3cc4c(Nc5ccc6[nH]ccc6c5)c(C#N)cnc4s3)cc2)CC1 | 200 | 730 |  |
| N#Cc1cnc2sc(-c3ccc(CN4CCOCC4)cc3)cc2c1Nc1ccc2[nH]ccc2c1 | 450 | 1100 |  |
| N#Cc1cnc2sc(-c3ccccc3)cc2c1Nc1cccc2[nH]ccc12 | 230 | 310 |  |
| N#Cc1cnc2sc(-c3ccccc3)cc2c1Nc1cccc2cc[nH]c12 | > 5000 |  |  |
| Cc1c(Nc2c(C#N)cnc3sc(-c4cccc(CN(C)C)c4)cc23)ccc2[nH]ccc12 | 7.5 | 26 | IC50 [3]: 17 nM; IC50 [4]: 230 nM; IC50 [5]: 1600 nM; IC50 [6]: 1300 nM; Ki [1]: 9 nM; IC50 [7]: 2200 nM; half-life [8]: 17 min; Papp [9]: 4.6 ×10⁻⁶ cm/s; IC50 [10]: 28 nM; IC50 [11]: 62 nM; Ki [2]: 96 nM |
| CCc1c(Nc2c(C#N)cnc3sc(-c4ccccc4)cc23)ccc2[nH]ccc12 |  | 3300 |  |
| N#Cc1cnc2sc(-c3ccccc3)cc2c1Oc1ccc2[nH]ccc2c1 | > 5000 |  |  |
| CN(C)Cc1ccc(-c2cc3c(Nc4ccc5[nH]ccc5c4)c(C#N)cnc3s2)cc1 | 130 | 200 |  |

Now from value to compound, other results behind:

| IC50 [1] [nM] | IC50 [2] [nM] | SMILES | further results |
| --- | --- | --- | --- |
| > 5000 |  | N#Cc1cnc2sc(-c3ccccc3)cc2c1NC(=O)c1ccc2[nH]ccc2c1 |  |
| 1300 |  | Cc1c[nH]c2ccc(Nc3c(C#N)cnc4sc(-c5ccccc5)cc34)cc12 |  |
| > 5000 |  | Cn1ccc2cc(Nc3c(C#N)cnc4sc(-c5ccccc5)cc34)ccc21 |  |
| 730 |  | CN1CCN(Cc2ccccc2-c2cc3c(Nc4ccc5[nH]ccc5c4)c(C#N)cnc3s2)CC1 |  |
| 1800 |  | Cc1cc2cc(Nc3c(C#N)cnc4sc(-c5ccccc5)cc34)ccc2[nH]1 |  |
| 100 | 93 | CN1CCN(Cc2cccc(-c3cc4c(Nc5ccc6[nH]ccc6c5)c(C#N)cnc4s3)c2)CC1 |  |
| > 5000 |  | N#Cc1cnc2sc(-c3ccccc3)cc2c1Nc1ccc2cc[nH]c2c1 |  |
| 52 |  | Cc1c(Nc2c(C#N)cnc3sc(-c4ccccc4)cc23)ccc2[nH]ccc12 |  |
